Consider 1 compound from patent US20190364896A1, “SYNERGISTIC WEED CONTROL FROM APPLICATIONS OF PYRIDINE CARBOXYLIC ACID HERBICIDES AND ALS INHIBITORS” (Dow AgroSciences LLC, priority 2014, published 2019).

Common to all, as to test: Postemergence herbicidal activity, greenhouse trial (visual injury 0-100%)
Format in all cases: in vivo

For assay [1], the system named is blackgrass (Alopecurus myosuroides, ALOMY). Summed up:
(§1)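 Greenhouse postemergence test, ~23 °C day, 22 °C night. Two-way combinations were sprayed at 187 L/ha in 1.5% v/v crop oil concentrate, and percent injury was scored visually after 20-22 d.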

In assay [2] the test system is grain sorghum (Sorghum vulgare, SORVU). In a few lines: as §1
Assay [3] relates to rutabaga (Brassica napus var. napobrassica, BRSNA). The following applies: 5 g ae/ha. The procedure:
(§2) Seeds of the desired test plant species were planted in Sun Gro MetroMix® 306 planting mixture, which typically has a pH of 6.0 to 6.8 and an organic matter content of about 30 percent, in plastic pots with a surface area of 103.2 square centimeters (cm^2). […] The plants were grown for 7-36 days (d) in a greenhouse with an approximate 14-hour (h) photoperiod which was maintained at about 23° C. during the day and 22° C. during the night. Nutrients and water were added on a regular basis and supplemental lighting was provided with overhead metal halide 1000-Watt lamps as necessary. The plants were employed for testing when they reached the second or third true leaf stage.
(§3) Weighed amounts of technical material were dissolved in a volume of 97:3 volume per volume (v/v) acetone/dimethyl sulfoxide (DMSO) to stock solutions. […] The concentrated stock solutions were diluted with an aqueous mixture of 1.5% v/v of Agri-dex crop oil concentrate to provide the appropriate application rates. Compound requirements are based upon a 12 milliliter (mL) application volume at a rate of 187 liters per hectare (L/ha). Spray solutions of the experimental compound mixtures were prepared by adding the stock solutions to the appropriate amount of dilution solution to form a 12 mL spray solution in two-way combinations. Formulated compounds were applied to the plant material with an overhead Mandel track sprayer equipped with 8002E nozzles calibrated to deliver 187 L/ha over an application area of 0.503 square meters (m^2) at a spray height of 18 inches (43 centimeters (cm)) above average plant canopy. Control plants were sprayed in the same manner with the solvent blank. Application rates for component (a) are in g ae/ha, and application rates for component (b) are in g ai/ha.
(§4) The treated plants and control plants were placed in a greenhouse as described above and watered by sub-irrigation to prevent wash-off of the test compounds. After 20-22 d, the condition of the test plants as compared with that of the control plants was determined visually and scored on a scale of 0 to 100 percent where 0 corresponds to no injury and 100 corresponds to complete kill. The condition of the test plants was compared with that of the control plants as determined visually and scored on a scale of 0 to 100 percent, where 0 corresponds to no injury and 100 corresponds to complete kill. Colby's equation was used to determine the herbicidal effects expected from the mixtures.
(§5) Compound 1 was formulated as an EC and was combined with imazamox, imazamethabenz, imazapic, imazapyr or imazethapyr. The mixtures were applied to winter wheat (TRZAW) and/or maize (ZEAMX), and the phytotoxicity of the herbicidal compositions was measured. In addition, the efficacy of the herbicidal compositions on blackgrass (Alopecurus myosuroides, ALOMY), wild oat (Avena fatua, AVEFA), winter rape (Brassica napus, BRSNW), spring rape (Brassica napus, BRSNN), turnip (Brassica rapa, BRSRR), thistle (Cirsium arvense, CIRAR), large crabgrass (Digitaria sanguinalis, DIGSA), pigweed (Amaranthus retrollexus, AMARE), common lambsquarters (Chenopodium album L., CHEAL), poinsettia (Euphorbia heterophylla, EPHHL), ivyleaf morning-glory (Ipomoea hederacea, IPOHE), kochia (Kochia scoparia, KCHSC), wild buckwheat (Polygonum convolvulus, POLCO), grain sorghum (Sorghum vulgare, SORVU), chickweed (Stellaria media, STEME), wild pansy (Viola tricolor, VIOTR), sunflower (Helianthus annuus, HELAN), giant foxtail (Setaria faberi, SETFA), soybean (Glycine max, GLXMA), rutabaga (Brassica napus var. napobrassica, BRSNA) and barnyardgrass (Echinochloa crus-galli, ECHCG) was evaluated.

Assay [4] has as its system soybean (Glycine max, GLXMA). On the procedure: as §2, §3, §4, §5
Assay [5] concerns turnip (Brassica rapa, BRSRR). As to conditions: 5 g ae/ha. On the procedure:
as §2, §3, §4, §5

Assay [6] relates to giant foxtail (Setaria faberi, SETFA).
Assay [7] deals with brown mustard (Brassica juncea, BRSJU). The following applies: Compound 1 5 g ae/ha.

Values joined by “and” are separate entries in the source; they are usually repeats but may differ in a detail not shown here. Equal entries are not always repeated.

In the case of `Nc1c(F)c(-c2ccc3cc[nH]c3c2F)nc(C(=O)O)c1Cl` [Compound 1], the “% visual injury Obs” value in assay [1] (5 g ae/ha) is 0%; in assay [1] (10 g ae/ha), 0%; in assay [1] (ALOMY, Compound 1 5 g ae/ha) it was 0%; in assay [1] (ALOMY, Compound 1 10 g ae/ha), 0%; in assay [2] (5 g ae/ha), 10% and 0%; in assay [2] (10 g ae/ha), 50%. The “% visual injury Obs” value in assay [2] (SORVU, Compound 1 5 g ae/ha) is 0% and 10%; in assay [2] (SORVU, Compound 1 10 g ae/ha), 50%; in assay [3], 65%; in assay [4] (5 g ae/ha), 95%; in assay [4] (10 g ae/ha), 100%; in assay [5], 50%. Moreover, the “% visual injury Obs” value in assay [6] (5 g ae/ha) worked out at 10%; in assay [6] (10 g ae/ha), 50%; in assay [6] (SETFA, Compound 1 5 g ae/ha), 10%; in assay [6] (SETFA, Compound 1 10 g ae/ha) it was 50%; in assay [7], 60%.
